From patent EP3995830A1, “METHOD OF PROGNOSIS OF AN INDIVIDUAL HAVING MULTIPLE MYELOMA TO BE SENSITIVE TO A TREATMENT” (Centre national de la recherche scientifique, priority 2020, dated 2022)

Test system: HMCLs
Assay: HMCLs response to drug treatment (IC50 at day 4, CellTiter-Glo assay)
Assay type: cell-based, human
Conditions: classification from IC50 at day 4
Description: HMCLs were cultured in RPMI-1640 medium (Gibco, Thermo Fisher Scientific, Waltham, USA) supplemented with 10% fetal bovine serum (Eurobio, Les Ulis, France) and IL-6 (Peprotech, Rocky Hill, USA) for XG cell lines. The inventorsevaluated the sensitivity of HMCLs to lenalidomide and romidepsin (Selleckchem, Houston, USA). The IC50 was determined at day 4 using the CellTiter-Glo assay (Promega, Madison, USA), as previously described. The data represent the mean ± standard deviation of three independent experiments that were carried out on sextuplet culture wells (Figure 6A and 7A).

SMILES: Nc1cccc2c1CN(C1CCC(=O)NC1=O)C2=O (centres unmarked) [lenalidomide]
- sensitivity of HMCLs to lenalidomide (AMO1, JJN3, KMS-12-BM, SKMM2, XG1, XG5, XG7, XG12, XG20 and XG21 HMCLs): resistant
- sensitivity of HMCLs to lenalidomide (OPM2, RPMI8226, XG2, XG6, XG13 and XG19 HMCLs): sensitive
